Converted amounts (≈) assume the structure as drawn.
How the values were obtained:
[1] = tested on: PAO1 + blaPDC F121L + G220S; assay: MIC, broth microdilution; assay type: cell-based; conditions: Pseudomonas aeruginosa
[2] = tested on: PAO ΔpiuC producing PDC A200T; assay: Cefiderocol MIC, iron uptake-deficient host; assay type: cell-based; conditions: Pseudomonas aeruginosa
From the text: (§1) We took advantage of a previously constructed and characterized laboratory collection of recombinant P. aeruginosa PAO1 isolates expressing different blaPDC variants, but specifically enriched for this work with additional variants, following the previously described methodology ([17]). […] The final collection comprised 40 recombinant isolates (20 in PAO1 and 20 in PAO ΔpiuC) producing the wild-type PDC-1 variant from PAO1 and 19 derivatives carrying specific amino acid substitutions previously associated with the development of resistance to ceftazidime/avibactam, ceftolozane/tazobactam, or cefiderocol: T70I, F121L, P153L, G156D, A200T, G202S, ΔG202-E219, G214R, P215L, P215S, ΔP215-G222, D217N, E219K, E219G, E219D, S226ins, L293P, F121L + E219K, and F121L + G222S.
(§2) The MICs of ceftazidime, ceftazidime/avibactam, ceftolozane/tazobactam, cefepime, and cefiderocol were determined in triplicate, for all isolates, by reference broth microdilution assays. Avibactam and tazobactam were fixed at 4 mg/L. All assays were performed using cation-adjusted Mueller-Hinton broth (CAMHB), except for cefiderocol, which was determined in all cases using iron-depleted CAMHB, prepared according to CLSI M100 guidelines ([40]). EUCAST v.15.0 clinical breakpoints and guidelines (http://www.eucast.org/clinical_breakpoints/) were used for reference purposes. Reference strains Escherichia coli ATCC 25922, Klebsiella pneumoniae ATCC 700603, and P. aeruginosa ATCC 27853 were used as controls.

[3] = tested on: PAO ΔpiuC producing PDC D217N; assay: Cefiderocol MIC, iron uptake-deficient host; assay type: cell-based; conditions: Pseudomonas aeruginosa
From the text: as §1, §2

[4] = tested on: PAO ΔpiuC producing PDC E219D; assay: Cefiderocol MIC, iron uptake-deficient host; assay type: cell-based; conditions: Pseudomonas aeruginosa
From the text: as §1, §2

[5] = tested on: PAO ΔpiuC producing PDC E219G; assay: Cefiderocol MIC, iron uptake-deficient host; assay type: cell-based; conditions: Pseudomonas aeruginosa
From the text: as §1, §2

[6] = tested on: PAO ΔpiuC producing PDC E219K; assay: Cefiderocol MIC, iron uptake-deficient host; assay type: cell-based; conditions: Pseudomonas aeruginosa
From the text: as §1, §2

[7] = tested on: PAO ΔpiuC producing PDC F121L + E219K; assay: Cefiderocol MIC, iron uptake-deficient host; assay type: cell-based; conditions: Pseudomonas aeruginosa
From the text: as §1, §2

[8] = tested on: PAO ΔpiuC producing PDC F121L + G220S; assay: Cefiderocol MIC, iron uptake-deficient host; assay type: cell-based; conditions: Pseudomonas aeruginosa
From the text: as §1, §2

[9] = tested on: PAO ΔpiuC producing PDC F121L; assay: Cefiderocol MIC, iron uptake-deficient host; assay type: cell-based; conditions: Pseudomonas aeruginosa
From the text: as §1, §2

[10] = tested on: PAO ΔpiuC producing PDC G156D; assay: Cefiderocol MIC, iron uptake-deficient host; assay type: cell-based; conditions: Pseudomonas aeruginosa
From the text: as §1, §2

[11] = tested on: PAO ΔpiuC producing PDC G202S; assay: Cefiderocol MIC, iron uptake-deficient host; assay type: cell-based; conditions: Pseudomonas aeruginosa
From the text: as §1, §2

[12] = tested on: PAO ΔpiuC producing PDC G214R; assay: Cefiderocol MIC, iron uptake-deficient host; assay type: cell-based; conditions: Pseudomonas aeruginosa
From the text: as §1, §2

[13] = tested on: PAO ΔpiuC producing PDC L293P; assay: Cefiderocol MIC, iron uptake-deficient host; assay type: cell-based; conditions: Pseudomonas aeruginosa
From the text: as §1, §2

[14] = tested on: PAO ΔpiuC producing PDC P153L; assay: Cefiderocol MIC, iron uptake-deficient host; assay type: cell-based; conditions: Pseudomonas aeruginosa
From the text: as §1, §2

[15] = tested on: PAO ΔpiuC producing PDC P215L; assay: Cefiderocol MIC, iron uptake-deficient host; assay type: cell-based; conditions: Pseudomonas aeruginosa
From the text: as §1, §2

[16] = tested on: PAO ΔpiuC producing PDC P215S; assay: Cefiderocol MIC, iron uptake-deficient host; assay type: cell-based; conditions: Pseudomonas aeruginosa
From the text: as §1, §2

[17] = tested on: PAO ΔpiuC producing PDC S226ins; assay: Cefiderocol MIC, iron uptake-deficient host; assay type: cell-based; conditions: Pseudomonas aeruginosa
From the text: as §1, §2

[18] = tested on: PAO ΔpiuC producing PDC T70I; assay: Cefiderocol MIC, iron uptake-deficient host; assay type: cell-based; conditions: Pseudomonas aeruginosa
From the text: as §1, §2

[19] = tested on: PAO ΔpiuC producing PDC ∆G202-E219; assay: Cefiderocol MIC, iron uptake-deficient host; assay type: cell-based; conditions: Pseudomonas aeruginosa
From the text: as §1, §2

[20] = tested on: PAO ΔpiuC producing PDC ∆P215-G222; assay: Cefiderocol MIC, iron uptake-deficient host; assay type: cell-based; conditions: Pseudomonas aeruginosa
From the text: as §1, §2

[21] = tested on: PAO ΔpiuC producing PDC-1 (WT); assay: Cefiderocol MIC, iron uptake-deficient host; assay type: cell-based; conditions: Pseudomonas aeruginosa
From the text: as §1, §2

PAO ΔpiuC = assay: Cefiderocol MIC, iron uptake-deficient host; assay type: cell-based; conditions: Pseudomonas aeruginosa
From the text: as §1, §2

[22] = tested on: PAO1 producing the Ω-loop variants ∆P215-G222, E219K, and F121L + E219K; assay: MIC, group of Ω-loop variants in PAO1; assay type: cell-based; conditions: Pseudomonas aeruginosa; range over PAO1 producing ∆P215-G222, E219K and F121L + E219K
From the text: as §1
as §2, with “Reference strains Escherichia coli ATCC 25922, Klebsiella pneumoniae ATCC 700603, and P. aeruginosa ATCC 27853 were used as controls.” left out

[23] = tested on: PAO ΔpiuC producing the ∆P215-G222, E219K, F121L + E219K, and L293P variants; assay: MIC, group of variants in PAO ΔpiuC; assay type: cell-based; conditions: Pseudomonas aeruginosa
From the text: as §1
as §2, with “Reference strains Escherichia coli ATCC 25922, Klebsiella pneumoniae ATCC 700603, and P. aeruginosa ATCC 27853 were used as controls.” left out

[24] = tested on: E219K or L293P substitutions combined with inactivating mutations affecting iron uptake (∆piuC); assay: MIC, E219K or L293P with impaired iron uptake; assay type: cell-based; conditions: Pseudomonas aeruginosa
From the text: as §1
as §2, with “Reference strains Escherichia coli ATCC 25922, Klebsiella pneumoniae ATCC 700603, and P. aeruginosa ATCC 27853 were used as controls.” left out

[25] = tested on: P. aeruginosa isolates overproducing PDC variants; conditions: clinical strains, values generally remain below; cited from earlier work
[26] = tested on: E. cloacae AmpC variant with a ∆A294-P295 deletion; parameters: method as in PMID 32284381; conditions: relative to the parent enzyme; cited from earlier work
PDC-1 (WT) = PDC-1 (WT) (Pseudomonas aeruginosa, UniProt P24735); assay: Steady-state kinetics of purified β-lactamase
PDC E219K = PDC E219K (Pseudomonas aeruginosa, UniProt P24735, E247K); assay: Steady-state kinetics of purified β-lactamase; conditions: for kcat: direct hydrolysis at substrate concentration at least three times the Km; for Ratio for PDC E219K/PDC-1: ratio of kcat/Km (fold change in catalytic efficiency)
PDC L293P = PDC L293P (Pseudomonas aeruginosa, UniProt P24735, L320P); assay: Steady-state kinetics of purified β-lactamase; conditions: for kcat: direct hydrolysis at substrate concentration at least three times the Km

Compound: CC(C)(O/N=C(\C(=O)N[C@@H]1C(=O)N2C(C(=O)[O-])=C(C[N+]3(CCNC(=O)c4ccc(O)c(O)c4Cl)CCCC3)CS[C@H]12)c1csc(N)n1)C(=O)O [FDC, cefiderocol]
- MIC [1]: 0.25 µg/mL (≈ 0.332 µM)
- MIC [2]: 8 µg/mL (≈ 10.6 µM)
- MIC [3]: 8 µg/mL (≈ 10.6 µM)
- MIC [4]: 8 µg/mL (≈ 10.6 µM)
- MIC [5]: 8 µg/mL (≈ 10.6 µM)
- MIC [6]: 32 µg/mL (≈ 42.5 µM)
- MIC [7]: 64 µg/mL (≈ 85.1 µM)
- MIC [8]: 8 µg/mL (≈ 10.6 µM)
- MIC [9]: 8 µg/mL (≈ 10.6 µM)
- MIC [10]: 8 µg/mL (≈ 10.6 µM)
- MIC [11]: 8 µg/mL (≈ 10.6 µM)
- MIC [12]: 16 µg/mL (≈ 21.3 µM)
- MIC [13]: 32 µg/mL (≈ 42.5 µM)
- MIC [14]: 8 µg/mL (≈ 10.6 µM)
- MIC [15]: 8 µg/mL (≈ 10.6 µM)
- MIC [16]: 8 µg/mL (≈ 10.6 µM)
- MIC [17]: 8 µg/mL (≈ 10.6 µM)
- MIC [18]: 8 µg/mL (≈ 10.6 µM)
- MIC [19]: 8 µg/mL (≈ 10.6 µM)
- MIC [20]: 32 µg/mL (≈ 42.5 µM)
- MIC [21]: 4 µg/mL (≈ 5.32 µM)
- MIC (PAO ΔpiuC): 2 µg/mL (≈ 2.66 µM)
- MIC [22]: 2 to 4 µg/mL
- MIC [23]: 32 to 64 µg/mL (≈ 42.5 to 85.1 µM)
- MIC [24]: ≥ 32 µg/mL
- MIC [25]: below 2 mg/L
- increase in catalytic efficiency [26]: ≈ 19 fold
- kcat (PDC-1 (WT); PDC-1 (WT), direct hydrolysis at substrate concentration at least three times the Km, 10 mM PBS, pH 7.4, room temperature): 0.0036 s⁻¹
- Ratio (PDC-1 (WT); kcat/Km relative to PDC-1 (reference = 1)): 1
- increase in kcat values (PDC E219K; PDC E219K relative to PDC-1): ≈ 125 fold
- Km (PDC E219K; PDC E219K, antibiotics: determined as Ki app with nitrocefin as reporter substrate, 10 mM PBS, pH 7.4, room temperature): 466 ± 120 µM
- kcat (PDC E219K; PDC E219K, 10 mM PBS, pH 7.4, room temperature, listed as Cefiderocol): 0.45 ± 0.03 s⁻¹
- kcat (PDC E219K; PDC E219K, 10 mM PBS, pH 7.4, room temperature, listed as cefiderocol): 0.45 s⁻¹
- Ratio for PDC E219K/PDC-1 (PDC E219K; listed as Cefiderocol): 24.00
- Ratio for PDC E219K/PDC-1 (PDC E219K; listed as cefiderocol): ≈ 24
- improvement in substrate binding affinity (Km decrease) (PDC L293P; PDC L293P relative to PDC-1): ≈ 32 fold
- Km (PDC L293P; PDC L293P, antibiotics: determined as Ki app with nitrocefin as reporter substrate, 10 mM PBS, pH 7.4, room temperature): 2.69 ± 0.1 µM
- kcat (PDC L293P; PDC L293P, 10 mM PBS, pH 7.4, room temperature, listed as Cefiderocol): 0.0036 ± 0.0001 s⁻¹
- kcat (PDC L293P; PDC L293P, 10 mM PBS, pH 7.4, room temperature, listed as cefiderocol): 0.0036 s⁻¹
- Ratio for PDC L293P/PDC-1 (PDC L293P; ratio of kcat/Km (fold change in catalytic efficiency)): 33.75

— PMC12217463, “Functional and structural analyses of amino acid sequence variation in PDC β-lactamase reveal different mechanistic pathways toward cefiderocol resistance in Pseudomonas aeruginosa” (Antimicrobial Agents and Chemotherapy, 2025)
